Test systems include NCI-H522 lung; KM12 colon; CCRF-CEM leukemia; T-47D breast; OVCAR-3 ovarian; HS 578T breast; CAKI-1 renal; HCT-116 colon; K-562 leukemia; HOP-92 NSCLC.
What all share (experiment): NCI-60 cell line screen, 48 h

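1) Cells in 96-well plates. 2) Compound, 48 h, 5 concentrations. 3) Linear interpolation between surrounding doses. 4) Unreached endpoint = highest concentration. The concentration for 50% growth inhibition is given as GI50. TGI is the concentration that stops growth completely.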 Some results are limits rather than exact numbers.

The source of these data is PubChem BioAssay (NCI).

For `C[C@@H]1CC[C@H]2C(COCCOCC3=C(C(F)(F)F)O[C@@H]4O[C@@]5(C)CC[C@H]6[C@H](C)CC[C@@H]3[C@@]46OO5)=C(C(F)(F)F)O[C@@H]3O[C@@]4(C)CC[C@@H]1[C@]32OO4`, the GI50 with NCI-H522 lung is 2.9 µM; with KM12 colon, 0.0305 µM; in the assay on CCRF-CEM leukemia it was less than 0.0209 µM; with T-47D breast, less than 0.014 µM; with OVCAR-3 ovarian, 0.134 µM; in the assay with CAKI-1 renal, 0.304 µM. The values for the GI50 with HCT-116 colon, in the assay with K-562 leukemia and in the assay with HOP-92 NSCLC were 0.0243 µM, less than 0.0241 µM and 0.0679 µM, respectively. Further, the TGI was greater than 100 µM in the assay with NCI-H522 lung; greater than 6.15 µM in the assay on KM12 colon; greater than 100 µM with CCRF-CEM leukemia; greater than 94.6 µM in the assay with T-47D breast; greater than 8.24 µM in the assay on OVCAR-3 ovarian; greater than 100 µM in the assay with HS 578T breast. Also, the TGI was greater than 12.9 µM with CAKI-1 renal, greater than 100 µM in the assay with HCT-116 colon, greater than 100 µM with K-562 leukemia and greater than 100 µM in the assay on HOP-92 NSCLC.
Regarding `C/C=C/[P+](c1ccccc1)(c1ccccc1)c1ccccc1`, the TGI in the assay on NCI-H522 lung was 10.2 µM; in the assay on KM12 colon, 7.7 µM; with CCRF-CEM leukemia, greater than 42.4 µM; with T-47D breast, 1.43 µM; with OVCAR-3 ovarian, 7.94 µM; in the assay on HS 578T breast, 3.17 µM. Also, the TGI with CAKI-1 renal is greater than 100 µM; in the assay on HCT-116 colon it was 20.6 µM; in the assay on K-562 leukemia it was 28.2 µM; with HOP-92 NSCLC it was 6.81 µM.
As for `CC1(C)CS(=O)(=O)CC(C)(C)C(=N/N)/C1=N\N`, the TGI in the assay with NCI-H522 lung, in the assay on KM12 colon, in the assay with T-47D breast, in the assay on OVCAR-3 ovarian, in the assay on HS 578T breast and in the assay on CAKI-1 renal was greater than 100 µM in each case. In addition, the TGI in the assay with HCT-116 colon, in the assay with K-562 leukemia and in the assay with HOP-92 NSCLC was greater than 100 µM each time.
As for `CCOC(=O)c1sc2c(c1OC(=O)c1cccs1)c(=O)n(-c1ccccc1)c(=S)n2-c1ccccc1`, the TGI with NCI-H522 lung is 27.1 µM; with KM12 colon, 42.3 µM; with CCRF-CEM leukemia it was 36 µM; with T-47D breast it was greater than 100 µM; in the assay with OVCAR-3 ovarian it was 60.6 µM; in the assay on HS 578T breast, 83 µM. Moreover, the TGI with CAKI-1 renal is 75.8 µM; in the assay on HCT-116 colon, 22 µM; in the assay with K-562 leukemia, greater than 100 µM; in the assay on HOP-92 NSCLC it was 52.7 µM.
For the compound `O=c1oc2ccccc2cc1/C=N/N1C(=S)N(c2ccccc2)C(=Nc2ccccc2)C1=Nc1ccccc1`, the TGI in the assay on NCI-H522 lung, with KM12 colon, with T-47D breast, with OVCAR-3 ovarian, with HS 578T breast and with CAKI-1 renal was greater than 100 µM each time. The TGI in the assay on HCT-116 colon, in the assay on K-562 leukemia and in the assay on HOP-92 NSCLC was greater than 100 µM throughout.
Turning to `COc1cc(OC)c(OC)cc1/C=N/N=C(\N)NO`, the TGI in the assay with NCI-H522 lung, in the assay on KM12 colon, with CCRF-CEM leukemia, in the assay on T-47D breast, in the assay with OVCAR-3 ovarian and in the assay with HS 578T breast was greater than 100 µM in each case. For the same compound, the TGI with CAKI-1 renal, with HCT-116 colon, in the assay with K-562 leukemia and in the assay on HOP-92 NSCLC was greater than 100 µM throughout.
`N#Cc1c(N)oc(-c2cccc([N+](=O)[O-])c2)c1C#N`: the TGI was 59.1 µM in the assay on NCI-H522 lung; greater than 100 µM in the assay with CCRF-CEM leukemia; greater than 100 µM in the assay on T-47D breast; greater than 100 µM with HS 578T breast; 43.6 µM with CAKI-1 renal; greater than 100 µM in the assay on HCT-116 colon. The compound also gave a TGI with HOP-92 NSCLC of 37.7 µM.
For the compound `Cc1ccccc1N=Nc1ccc(N=Nc2c(O)ccc3ccccc23)c(C)c1`, the TGI in the assay with NCI-H522 lung, in the assay with KM12 colon, in the assay with T-47D breast, in the assay with OVCAR-3 ovarian, in the assay on HS 578T breast and with CAKI-1 renal was greater than 100 µM each time. Moreover, the TGI in the assay on HCT-116 colon, in the assay with K-562 leukemia and with HOP-92 NSCLC was greater than 100 µM in each case.
As to `C/C(=N\Nc1nc2ccccc2s1)c1ncccn1`, the TGI in the assay with NCI-H522 lung was 16.5 µM; in the assay with KM12 colon, 9.46 µM; in the assay with CCRF-CEM leukemia, greater than 100 µM; in the assay with T-47D breast it was greater than 100 µM; in the assay with OVCAR-3 ovarian, 2.06 µM; in the assay with HS 578T breast, greater than 37.2 µM. Also, the TGI is 5.62 µM in the assay with CAKI-1 renal, greater than 100 µM in the assay on K-562 leukemia and 1.1 µM in the assay with HOP-92 NSCLC.
As to `Fc1ccc2nc3n(c2c1)C(c1c(F)cccc1F)SC3` (stereo unspecified), the TGI with NCI-H522 lung, in the assay on KM12 colon, in the assay on T-47D breast, in the assay with OVCAR-3 ovarian, in the assay with HS 578T breast and with CAKI-1 renal was greater than 100 µM throughout. In addition, the TGI in the assay on HCT-116 colon and in the assay with HOP-92 NSCLC was greater than 100 µM in each case.
Regarding `CC(=O)OC1C(O)COC(O[C@H]2CC[C@]34C[C@]35CC[C@]3(C)C([C@@]6(C)CC[C@@H](C(C)(C)O)O6)[C@@H](O)C[C@@]3(C)C5C[C@H](OC3OCC(O)C(O)C3O)[C@H]4C2(C)C)C1OC1OCC(O)C(O)C1O` (stereo partly specified), the TGI in the assay with NCI-H522 lung, in the assay with KM12 colon, in the assay on T-47D breast, in the assay with OVCAR-3 ovarian, in the assay on HS 578T breast and in the assay with CAKI-1 renal was greater than 100 µM in each case. Further, the TGI in the assay on HCT-116 colon, in the assay on K-562 leukemia and in the assay on HOP-92 NSCLC was greater than 100 µM each time.
On to `CC1(C)CC(=O)c2c(nc3ccc4ccccc4c3c2-c2ccc(NC(=O)CCCC(=O)Nc3ccc(-c4c5c(nc6ccc7ccccc7c46)CC(C)(C)CC5=O)cc3)cc2)C1`, for which the TGI in the assay on KM12 colon, with CCRF-CEM leukemia, with T-47D breast, with OVCAR-3 ovarian, in the assay on HS 578T breast and with CAKI-1 renal was greater than 100 µM in each case. Further, the TGI in the assay with HCT-116 colon, with K-562 leukemia and with HOP-92 NSCLC was greater than 100 µM throughout.
Regarding `O=C(NCc1cccnc1)NCc1cccnc1`, the TGI with NCI-H522 lung, in the assay with KM12 colon, with T-47D breast, with OVCAR-3 ovarian, in the assay with HS 578T breast and in the assay with CAKI-1 renal was greater than 100 µM in each case. For the same compound, the TGI in the assay with HCT-116 colon, in the assay with K-562 leukemia and in the assay with HOP-92 NSCLC was greater than 100 µM in each case.
For `Cc1n[nH]c(=O)c2cc(-c3ccccc3)[nH]c12`, the TGI with KM12 colon, in the assay on CCRF-CEM leukemia, in the assay on T-47D breast, with OVCAR-3 ovarian, in the assay on HS 578T breast and with CAKI-1 renal was greater than 100 µM each time. Besides, the TGI in the assay on HCT-116 colon, in the assay on K-562 leukemia and in the assay with HOP-92 NSCLC was greater than 100 µM in each case.
